In patent publication US9408871B2, “Methods for inhibiting complement activation and uses thereof” (THE UNIVERSITY OF BRITISH COLUMBIA, priority 2013, dated 2016):

Key:
[1] = tested on: terminal pathway (TP) of complement; test: serum-based terminal pathway (TP) hemolytic assay (2% NHS, C5b,6, chicken erythrocytes); assay type: cell-based, human
Description: Erythrocyte lysis assays were used to measure complement-mediated hemolytic activity. Erythrocyte (RBC) lysis assays as previously described^18,37 were used to measure complement activity. For alternative pathway assays and for total hemolytic activity assays, unsensitized rabbit erythrocytes were used. Chicken erythrocytes were used for the terminal pathway assays.
Erythrocytes were washed three times in GVB with the reaction buffers as indicated, and counted using the Advia 120 Hematology System from Siemens (Siemens, Erlangen, Germany). Reactions in 300 μL were allowed to proceed for 30 min at 37° C., after which unlysed cells were pelleted by centrifugation at 600×g. Erythrocyte lysis, reflected by the released hemoglobin in the supernatant, was quantified by measuring the absorbance at 405 nm using the Mithras LB 940 microplate reader from Berthold Technologies (Bad Wildbad, Germany). Percent lysis was determined relative to the control of 100% lysis with H2O. For total hemolytic and terminal pathway (TP) assays, the concentrations of NHS and C5b,6 to initiate complement activation were established from pilot studies to obtain ˜70-80% erythrocyte lysis at 30 min.
For serum-based terminal pathway (TP) hemolytic assays, components were diluted in GVB containing 10 mM EDTA (GVB-E), the latter added to prevent upstream complement activation and generation of endogenous C5b,6. 2% NHS was used as the source of C7, C8, and C9, and hemolysis of chicken erythrocytes (cRBC) (3.3×10^8 cells/mL) was initiated by addition of exogenous purified C5b,6, the concentration of which was determined from pilot studies to yield ˜70-80% lysis at 30 min. No C5b,6 activity was detected in the NHS prior to initiating the reaction. For some experiments, instead of NHS, purified terminal pathway complement components were used in the TP assays. In these assays, in a final volume of 300 uL GVB, lysis was achieved by the sequential addition of the following components: cRBC (3.3×10^8 cells/mL), C5b,6 (20 μM), C7 (15 nM), C8 (10 nM), and C9 (25 nM). The unlysed cell pellet was removed by centrifugation and lysis was measured immediately after the 30-minute reaction. A standard curve for the terminal pathway assay using serum as the source of complement (FIG. 2) was generated using a fixed serum concentration at 2%, and increasing concentrations of purified C5b,6 dose-dependently lysed chicken erythrocytes after 30 min at 37° C. […] of purified C5b,6 was therefore used to fix baseline lysis at ˜80% to allow assessment of the inhibitory effects of polyphosphate in serum.
TP activity in NHS(2%), measured by lysis of cRBC, was initiated by adding a limiting amount of exogenous purified C5b,6 (250 pM) to achieve 70-80% lysis after 30 min. A molar excess of EDTA was used to prevent upstream activation of complement and generation of endogenous C5b,6. In the absence of C5b,6, there was no detectable complement-mediated cRBC lysis. P1 at concentrations ranging from 0.1 to 1000 μM, had no effect on complement-mediated hemolysis in NHS via the TP (FIG. 5A). By contrast, polyphosphate>1000 inhibited the TP in serum in a concentration-dependent manner, with an IC50 of ˜10 μM polyphosphate>1000 (dotted lines) (calculated based on monomeric phosphate).

[2] = tested on: C5b,6, C5, C6, C7, thrombin; test: differential scanning fluorimetry (DSF), all proteins tested; assay type: binding; conditions: 1 mM
Procedure: For DSF, 25 μL reaction mixes consisting of 0.4 mg/mL protein (0.14 mg/mL for C5b,6), varying concentrations of polyphosphate diluted in HBS (20 mM HEPES, 150 mM NaCl, pH 7.4), and 5× SYPRO Orange were loaded into MicroAmp Fast Optical 96-well Reaction Plates (Applied Biosystems). Samples were heat denatured in an Applied Biosystems StepOnePlus Real-Time PCR System using a ramp configuration starting at 25° C. and increasing at 1 C.° min^−1 to 95° C. Fluorescence (in relative fluorescence units, RFU) was measured every 30 seconds^38. Data for each curve were normalized to the maximum and the minimum of the curve.
In another approach, differential scanning fluorimetry (DSF) was used to determine the thermal stability of the complement proteins in the presence and absence of polyphosphate. This technique involves heat-denaturing proteins and exposing internal hydrophobic regions to the aqueous environment, which are detected by the fluorescent dye SYPRO Orange^38. Interactions between a protein and a binding partner often change the thermal stability of the protein, observed as a shift in the melting (denaturation) curve. C5b,6, C5, C6, and C7 were individually incubated with a range of concentrations of polyphosphate>1000 and relative fluorescence (RFU) was measured as the proteins were thermally denatured. An increase in RFU indicates protein denaturation. […]

[3] = target: T1, C1-esterase inhibitor (C1-inh) (Homo sapiens, UniProt P05155); test: C1s-mediated cleavage of C2 in the presence of C1-inh (SDS-PAGE); assay type: biochemical; conditions: 10-500 μM, 6 nM C1s, 5 nM C1-inh
T1 sequence (P05155 23-500): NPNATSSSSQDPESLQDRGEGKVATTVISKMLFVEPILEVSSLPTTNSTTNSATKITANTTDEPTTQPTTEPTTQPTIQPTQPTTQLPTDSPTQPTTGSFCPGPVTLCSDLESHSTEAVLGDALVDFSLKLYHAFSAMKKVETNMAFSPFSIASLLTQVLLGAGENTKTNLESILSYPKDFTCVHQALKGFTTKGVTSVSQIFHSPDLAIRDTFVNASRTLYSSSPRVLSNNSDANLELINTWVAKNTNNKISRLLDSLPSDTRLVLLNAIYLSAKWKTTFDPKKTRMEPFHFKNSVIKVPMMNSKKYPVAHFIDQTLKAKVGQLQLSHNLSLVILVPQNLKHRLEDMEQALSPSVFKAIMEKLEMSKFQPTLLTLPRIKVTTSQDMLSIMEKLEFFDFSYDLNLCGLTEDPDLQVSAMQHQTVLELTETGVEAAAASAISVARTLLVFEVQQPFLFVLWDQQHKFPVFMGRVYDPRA
Procedure: We tested whether polyP affects the inhibitory properties of C1-inh on C1s-mediated cleavage and activation of complement factor C4 and C2. SDS-PAGE followed by coomassie staining of gels was used to monitor cleavage of C4 by C1s in the presence/absence of C1-inh and/or polyP in a purified system.
Briefly, 6 nM C1s with 10-500 μM of polyP1000 were incubated in 20 mM Hepes, 0.15 M NaCl, pH 7.5, 0.01% Tween buffer for 90 minutes at 37° C. 5 nM C1-inh was added and incubated for 30 minutes. C2 was added and incubated for 5 minutes at 37° C. The reactions were quenched with 5× loading buffer and β-ME.

O=P(O)(O)O [P1, Orthophosphate]
effect on TP hemolytic activity at equivalent concentration ([1]; 100 μM (based on the monomeric form)): had no effect | effect on complement-mediated hemolysis in NHS via the TP ([1]; 0.1 to 1000 μM, 2% NHS, 250 pM C5b,6, cRBC): had no effect | effect of co-incubated P1 on suppressive properties of polyphosphate>1000 ([1]; up to 2 mM P1 with 200 μM polyphosphate>1000): had no effect on the suppressive properties | effect on thermal stability (DSF) [2]: had no effect on the thermal stability | effect on activity of C1-inh in interfering with C1s-mediated cleavage of C2 [3]: had no effect
